This note sets out measurements from US11472805B2, “Tricyclic compounds and their use as phosphodiesterase inhibitors” (Pfizer Inc., priority 2015, dated 2022).

Common to all, as to format: biochemical
The target in one assay is Human PDE4B1 (Homo sapiens (Human), UniProt Q07343, S133E/S654A/S659A/S661A). As to the kind of experiment: PDE4B1 Scintillation Proximity Assay (SPA), inhibition of enzyme activity. The note with it: Table 9, geometric mean of 2-9 determinations unless otherwise indicated, read-out: Human PDE4B FL. An outline of the steps:
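His-tagged enzyme from baculovirus-infected insect cells, Ni-NTA purified. SPA with 1 μM cAMP (20 nM 3H-cAMP tracer) in 50 mM Tris pH 7.5, 1.3 mM MgCl2, 0.01% Brij, […] PDE4B enzyme for ~20% substrate conversion; 30 min at 25 °C, stopped with yttrium silicate beads, read after 8 h settling.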

The next assay concerns the target Human PDE4A3 (Homo sapiens (Human), UniProt P27815). As to the kind of experiment: PDE4A3 Scintillation Proximity Assay (SPA), inhibition of enzyme activity. Conditions: Table 9, geometric mean of 2-9 determinations unless otherwise indicated, read-out: Human PDE4A FL. Here is the method:
(§1) The PDE4A, PDE4B, PDE4C and PDE4D binding affinity for the compounds of the present invention was determined utilizing the following biological assay(s):
(§2) The recombinant Bacmid was isolated and used to transfect insect cells to generate a viral stock. To generate cell paste for purification, insect cells were infected with the virus stock and cells were harvested 72 hours after infection. Insect cell paste was lysed and after centrifugation, the supernatant was batch bound to Ni-NTA agarose (GE Healthcare) and eluted with 250 mM imidazole. This eluate was diluted with FLAG buffer (50 mM Tris HCL pH 7.5, 100 mM NaCl, 5% Glycerol, 1 mM TCEP with protease inhibitors) and batch bound to ant-FLAG M2 agarose (Sigma) overnight at 4° C. The agarose was packed into a column, washed with buffer and eluted with buffer containing elute using 250 ug/ml Flag-peptide. Fractions were analyzed using SDS-PAGE Coomassie blue staining and pooled based on purity. Pooled fractions were chromatographed on a S200 120 ml column (GE Healthcare) in 50 mM Tris HCL pH 7.5, 150 mM NaCl, 10% Glycerol, 2 mM TCEP with protease inhibitors. PDE4A3 fractions were analyzed by SDS-PAGE Coomassie blue staining, pooled based on purity, dialyzed against 50 mM Tris HCL pH 7.5, 100 mM NaCl, 20% Glycerol, 2 mM TCEP, frozen and stored at −80° C.
(§3) The PDE4A3, PDE4B1, PDE4C1 and PDE4D3 assays use the Scintillation Proximity Assay (SPA) technology to measure the inhibition of human recombinant PDE4A1, PDE4B3, PDE4C1, and PDE4D3 enzyme activity by compounds in vitro. The PDE4A1, PDE4B3, PDE4C1, and PDE4D3 assays are run in parallel using identical parameters, except for the concentration of enzyme ([…]). The assays are performed in a 384-well format with 50 uL assay buffer (50 mM TRIS pH7.5; 1.3 mM MgCl2; 0.01% Brij) containing enough PDE4A3, PDE4B1, PDE4C1, and PDE4D to convert ˜20% of substrate (1 μM cAMP consisting of 20 nM 3H-cAMP+[…] cold cAMP) and a range of inhibitors. Reactions are incubated for 30 min at 25° C. The addition of 20 uL of 8 mg/ml yitrium silicate SPA beads (Perkin Elmer) stops the reaction. The plates are sealed (TopSeal, Perkin Elmer) and the beads are allowed to settle for 8 hrs, after which they are read on the Trilux Microbeta overnight.
Background: Scintillation proximity formats need no separation of bound from free tracer.

A further assay deals with human PDE4D3 (Homo sapiens (Human), UniProt Q08499). As to the kind of experiment: PDE4D3 Scintillation Proximity Assay (SPA), inhibition of enzyme activity. The note with it: Table 9, geometric mean of 2-9 determinations unless otherwise indicated, read-out: Human PDE4D FL. Put shortly: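 His-tagged human PDE4D3 (aa 50–672), expressed in insect cells, hydrolysed 1 μM cAMP (3H tracer plus cold) for 30 min at 25° C in 50 mM Tris pH 7.5, 1.3 mM MgCl2 and 0.01% Brij. Enzyme level was set for ~20% conversion. Product was read by yttrium silicate SPA beads after 8 h settling.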
Sequence of human PDE4D3 (Q08499 186-808): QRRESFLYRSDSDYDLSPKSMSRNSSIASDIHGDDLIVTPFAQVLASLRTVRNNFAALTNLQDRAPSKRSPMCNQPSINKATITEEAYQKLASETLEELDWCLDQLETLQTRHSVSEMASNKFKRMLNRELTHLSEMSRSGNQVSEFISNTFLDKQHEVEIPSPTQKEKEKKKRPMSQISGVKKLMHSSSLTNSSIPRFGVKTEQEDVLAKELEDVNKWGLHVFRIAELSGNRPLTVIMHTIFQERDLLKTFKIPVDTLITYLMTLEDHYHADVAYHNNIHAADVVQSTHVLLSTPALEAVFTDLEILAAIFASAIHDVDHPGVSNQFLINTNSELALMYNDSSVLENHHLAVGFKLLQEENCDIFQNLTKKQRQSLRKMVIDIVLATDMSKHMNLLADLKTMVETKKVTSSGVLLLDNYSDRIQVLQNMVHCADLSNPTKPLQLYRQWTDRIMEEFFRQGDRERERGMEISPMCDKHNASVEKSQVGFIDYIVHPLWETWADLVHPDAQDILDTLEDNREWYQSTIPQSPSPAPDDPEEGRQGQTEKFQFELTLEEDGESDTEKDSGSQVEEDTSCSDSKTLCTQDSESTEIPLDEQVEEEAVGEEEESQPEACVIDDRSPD

For another assay, the target named is Human PDE4C1 (Homo sapiens (Human), UniProt Q08493). As to the kind of experiment: PDE4C1 Scintillation Proximity Assay (SPA), inhibition of enzyme activity. The note with it: Table 9, geometric mean of 2-9 determinations unless otherwise indicated, read-out: Human PDE4C FL. Here is the method:
as §1
as §2, with “PDE4C1” for “PDE4A3”
as §3

Sequence of Human PDE4C1 (Q08493 2-712): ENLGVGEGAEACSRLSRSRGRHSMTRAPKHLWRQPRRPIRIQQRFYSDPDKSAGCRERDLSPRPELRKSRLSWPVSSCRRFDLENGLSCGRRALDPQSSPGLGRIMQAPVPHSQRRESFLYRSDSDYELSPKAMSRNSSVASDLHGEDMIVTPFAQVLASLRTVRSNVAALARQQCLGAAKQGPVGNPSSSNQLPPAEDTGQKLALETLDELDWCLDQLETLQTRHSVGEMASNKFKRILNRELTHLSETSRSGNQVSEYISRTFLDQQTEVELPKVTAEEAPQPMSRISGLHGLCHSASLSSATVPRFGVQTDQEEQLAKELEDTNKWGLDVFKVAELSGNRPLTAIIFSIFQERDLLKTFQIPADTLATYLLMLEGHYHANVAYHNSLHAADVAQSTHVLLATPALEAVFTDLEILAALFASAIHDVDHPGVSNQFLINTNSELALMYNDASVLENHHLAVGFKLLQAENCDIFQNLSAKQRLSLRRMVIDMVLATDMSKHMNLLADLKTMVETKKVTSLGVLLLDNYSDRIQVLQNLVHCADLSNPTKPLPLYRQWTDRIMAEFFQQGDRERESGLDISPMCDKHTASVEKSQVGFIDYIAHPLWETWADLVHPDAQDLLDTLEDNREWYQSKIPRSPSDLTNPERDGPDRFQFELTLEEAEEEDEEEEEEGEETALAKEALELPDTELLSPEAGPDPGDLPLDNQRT
Sequence of Human PDE4A3 (P27815 other isoform, or with tags, fused parts or gaps): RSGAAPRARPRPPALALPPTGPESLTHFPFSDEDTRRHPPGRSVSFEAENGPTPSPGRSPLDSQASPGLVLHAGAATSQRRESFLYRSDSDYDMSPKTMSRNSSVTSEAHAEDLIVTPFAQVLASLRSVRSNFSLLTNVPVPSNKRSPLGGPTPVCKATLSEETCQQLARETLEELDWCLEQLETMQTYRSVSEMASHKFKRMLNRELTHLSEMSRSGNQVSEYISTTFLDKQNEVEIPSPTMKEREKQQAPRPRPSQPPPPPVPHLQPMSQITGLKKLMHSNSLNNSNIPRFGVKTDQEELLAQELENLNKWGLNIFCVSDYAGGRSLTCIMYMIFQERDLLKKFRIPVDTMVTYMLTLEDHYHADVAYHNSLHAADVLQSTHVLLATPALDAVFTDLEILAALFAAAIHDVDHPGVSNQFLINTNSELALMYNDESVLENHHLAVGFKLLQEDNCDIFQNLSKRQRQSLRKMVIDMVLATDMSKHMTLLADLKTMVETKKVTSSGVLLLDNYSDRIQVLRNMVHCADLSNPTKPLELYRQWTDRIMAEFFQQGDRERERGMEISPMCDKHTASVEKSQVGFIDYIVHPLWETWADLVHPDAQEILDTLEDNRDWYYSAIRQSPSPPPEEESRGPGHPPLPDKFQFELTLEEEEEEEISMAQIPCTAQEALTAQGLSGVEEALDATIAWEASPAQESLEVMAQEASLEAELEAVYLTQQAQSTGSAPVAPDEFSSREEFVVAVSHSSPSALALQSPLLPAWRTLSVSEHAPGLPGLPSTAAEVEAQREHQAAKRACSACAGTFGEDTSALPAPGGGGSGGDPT
Sequence of Human PDE4B1 (Q07343 122-736 S133E/S654A/S659A/S661A): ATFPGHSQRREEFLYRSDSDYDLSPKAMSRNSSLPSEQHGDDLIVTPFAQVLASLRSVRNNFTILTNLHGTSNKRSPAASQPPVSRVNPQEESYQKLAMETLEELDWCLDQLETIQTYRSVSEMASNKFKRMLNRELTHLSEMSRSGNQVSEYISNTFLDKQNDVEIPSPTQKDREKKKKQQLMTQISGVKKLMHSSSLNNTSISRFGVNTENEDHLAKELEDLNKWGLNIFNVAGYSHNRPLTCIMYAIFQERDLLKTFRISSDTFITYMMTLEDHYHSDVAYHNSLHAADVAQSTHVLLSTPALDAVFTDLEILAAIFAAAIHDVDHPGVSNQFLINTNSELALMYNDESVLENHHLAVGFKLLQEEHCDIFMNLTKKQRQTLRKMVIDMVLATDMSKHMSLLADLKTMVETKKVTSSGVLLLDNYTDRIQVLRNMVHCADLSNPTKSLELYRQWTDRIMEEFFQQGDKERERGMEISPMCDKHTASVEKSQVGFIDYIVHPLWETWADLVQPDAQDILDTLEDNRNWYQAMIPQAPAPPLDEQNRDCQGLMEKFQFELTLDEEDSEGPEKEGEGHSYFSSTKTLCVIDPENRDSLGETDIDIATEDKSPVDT

Turning to `Cc1ccc(-c2c3n(c4cccnc24)CCN(C2CC2)C3=O)cc1C` [Example 33, 8-Cyclopropyl-10-(3,4-dimethylphenyl)-7,8-dihydropyrido[2′,3′:4,5]pyrrolo[1,2-a]pyrazin-9(6H)-one], the IC50 was determined as 6.09 nM on Human PDE4B1, 4.93 nM on Human PDE4A3, 497 nM at human PDE4D3 and 11.2 nM at Human PDE4C1.

`N#Cc1cc(-c2c3n(c4cccnc24)CCN(C2CC2)C3=O)ccc1Cl` [Example 34, 2-Chloro-5-(8-cyclopropyl-9-oxo-6,7,8,9-tetrahydropyrido[2′,3′:4,5]pyrrolo[1,2-a]pyrazin-10-yl)benzonitrile]: the IC50 is < 0.64 nM at Human PDE4B1, 0.98 nM on Human PDE4A3, 23.3 nM on human PDE4D3 and 2.88 nM on Human PDE4C1.

Take `O=C1c2c(-c3ccc4c(c3)CCO4)c3ncccc3n2CCN1C1CC1` [Example 35, 8-Cyclopropyl-10-(2,3-dihydro-1-benzofuran-5-yl)-7,8-dihydropyrido[2′,3′:4,5]pyrrolo[1,2-a]pyrazin-9(6H)-one]: the IC50 at Human PDE4B1 was 4.15 nM; on Human PDE4A3, 2.08 nM; at human PDE4D3, 141 nM; on Human PDE4C1, 5.52 nM.

In the case of `O=C1c2c(-c3ccc(F)c(Cl)c3)c3ncccc3n2CCN1C1CC1` [Example 36, 10-(3-Chloro-4-fluorophenyl)-8-cyclopropyl-7,8-dihydropyrido[2′,3′:4,5]pyrrolo[1,2-a]pyrazin-9(6H)-one], the IC50 on Human PDE4B1 was < 1.1 nM; at Human PDE4A3 it was < 0.67 nM; at human PDE4D3, 28.1 nM; at Human PDE4C1, 3.48 nM.

In the case of `Cc1cc(-c2c3n(c4cccnc24)CCN(C2CC2)C3=O)ccc1F` [Example 37, 8-Cyclopropyl-10-(4-fluoro-3-methylphenyl)-7,8-dihydropyrido[2′,3′:4,5]pyrrolo[1,2-a]pyrazin-9(6H)-one], the IC50 on Human PDE4B1 amounted to 3.76 nM; at Human PDE4A3, 2.52 nM; on human PDE4D3, 98.7 nM; at Human PDE4C1, 3.3 nM.

In the case of `O=C1c2c(-c3ccc(F)cc3F)c3ncccc3n2CCN1C1CC1` [Example 38, 8-Cyclopropyl-10-(2,4-difluorophenyl)-7,8-dihydropyrido[2′,3′:4,5]pyrrolo[1,2-a]pyrazin-9(6H)-one], the IC50 amounted to 10.9 nM at Human PDE4B1, 5.59 nM at Human PDE4A3, 569 nM at human PDE4D3 and 21 nM at Human PDE4C1.

Regarding `O=C1c2c(-c3cc(F)c(F)c(F)c3)c3ncccc3n2CCN1C1CC1` [Example 40, 8-Cyclopropyl-10-(3,4,5-trifluorophenyl)-7,8-dihydropyrido[2′,3′:4,5]pyrrolo[1,2-a]pyrazin-9(6H)-one], the IC50 at Human PDE4B1 is < 0.67 nM; at Human PDE4A3, < 0.41 nM; on human PDE4D3 it was 17.2 nM; at Human PDE4C1 it was 4.36 nM.

`O=C1c2c(-c3cccc(F)c3)c3ncccc3n2CCN1C1CC1` [Example 41, 8-Cyclopropyl-10-(3-fluorophenyl)-7,8-dihydropyrido[2′,3′:4,5]pyrrolo[1,2-a]pyrazin-9(6H)-one]: the IC50 was 2.38 nM on Human PDE4B1, 1.26 nM at Human PDE4A3, 130 nM at human PDE4D3 and 9.22 nM at Human PDE4C1.

On to `O=C1c2c(-c3ccccc3)c3ncccc3n2CCN1C1CC1` [Example 42, 8-Cyclopropyl-10-phenyl-7,8-dihydropyrido[2′,3′:4,5]pyrrolo[1,2-a]pyrazin-9(6H)-one], for which the IC50 turned out to be 23.3 nM at Human PDE4B1, 12.2 nM on Human PDE4A3, 1050 nM at human PDE4D3 and 54.1 nM at Human PDE4C1.

Take `COc1ccc(-c2c3n(c4cccnc24)CCN(C2CC2)C3=O)cc1` [Example 44, 8-Cyclopropyl-10-(4-methoxyphenyl)-7,8-dihydropyrido[2′,3′:4,5]pyrrolo[1,2-a]pyrazin-9(6H)-one]: the IC50 on Human PDE4B1 was 6.37 nM; on Human PDE4A3, 33 nM; on human PDE4D3, 212 nM; at Human PDE4C1 it was 86 nM.
